The structures appear in SMILES notation.

For the test, the system named is T1, ZenR.
T1 construct: gene PXH69_30770
Particulars: read-out: Km,app; optimal conditions (55 °C, pH 8.0-9.0); 10-300 μM ZEN; no metal needed.

T1 sequence (A0AAW6LW22 entry or part of it): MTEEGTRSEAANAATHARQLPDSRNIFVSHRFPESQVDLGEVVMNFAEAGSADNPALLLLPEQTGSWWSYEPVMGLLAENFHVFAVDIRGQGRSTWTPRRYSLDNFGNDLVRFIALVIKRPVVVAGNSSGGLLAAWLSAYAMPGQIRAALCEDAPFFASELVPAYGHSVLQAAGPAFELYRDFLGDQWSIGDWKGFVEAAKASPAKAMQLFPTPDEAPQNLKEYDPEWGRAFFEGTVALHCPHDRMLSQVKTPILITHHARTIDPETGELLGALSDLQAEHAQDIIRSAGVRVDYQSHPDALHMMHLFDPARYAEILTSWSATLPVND

For orientation: Km means the concentration of substrate that gives half-maximal velocity. On to `C[C@H]1CCCC(=O)CCC/C=C/c2cc(O)cc(O)c2C(=O)O1` [Zearalenone], for which the Km amounted to 21.14 ± 0.16 µM.

The values above are taken from PMC10747462, “A Hydrolase Produced by Rhodococcus erythropolis HQ Is Responsible for the Detoxification of Zearalenone” (Toxins, 2023).
